Measured values reported in publication PMC5845004, “Novel (p)ppGpp Binding and Metabolizing Proteins of Escherichia coli” (mBio, 2018).
Values joined by “and” are separate entries in the source; they are usually repeats but may differ in a detail not shown here. Equal entries are not always repeated. “Also recorded” adds a separate entry of the source. Where two headings read alike, the source gives them in different places.

Legend:
[1] = target: Hpt (Escherichia coli, UniProt P0A9M2); assay: DRaCALA Kd determination, purified Hpt; type: binding, E. coli; conditions: 2 nM 32P-labeled ligand, read-out: apparent Kd, Hpt
Chain of Hpt (P0A9M2 whole entry): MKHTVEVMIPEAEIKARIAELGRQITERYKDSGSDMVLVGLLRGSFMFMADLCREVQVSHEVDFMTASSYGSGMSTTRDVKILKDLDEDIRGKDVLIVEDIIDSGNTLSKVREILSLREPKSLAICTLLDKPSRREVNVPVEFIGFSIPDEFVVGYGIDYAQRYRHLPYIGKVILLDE
Description: (§3) For Kd measurements by DRaCALA, 2-fold serial dilutions from the highest possible concentrations of each purified protein were prepared in binding buffer B, and approximately 2 nM concentrations of α-^32P-labeled ppGpp, pppGpp, GTP, and GDP were added. The mixtures were incubated for 5 min at RT before spotting of 2 µl of the reaction mixtures onto nitrocellulose membranes. The fractions of bound ligand and the apparent Kd values were calculated as previously described ([37]). For competition assays, purified proteins at the specified concentrations were incubated with 2 nM [α-^32P]ppGpp or [α-^32P]pppGpp in the presence of 100 μM competitor nucleotides in binding buffer B. The reaction mixtures were incubated for 5 min at RT, 2 µl was spotted onto nitrocellulose membranes, and the values corresponding to the bound fractions were determined. EDTA was added at excess concentrations as specified for each case.

[2] = target: YgdH (Escherichia coli, UniProt P0ADR8); assay: DRaCALA binding and Kd determination, purified YgdH; parameters: species or system E. coli; conditions: DRaCALA
Chain of YgdH (P0ADR8 whole entry): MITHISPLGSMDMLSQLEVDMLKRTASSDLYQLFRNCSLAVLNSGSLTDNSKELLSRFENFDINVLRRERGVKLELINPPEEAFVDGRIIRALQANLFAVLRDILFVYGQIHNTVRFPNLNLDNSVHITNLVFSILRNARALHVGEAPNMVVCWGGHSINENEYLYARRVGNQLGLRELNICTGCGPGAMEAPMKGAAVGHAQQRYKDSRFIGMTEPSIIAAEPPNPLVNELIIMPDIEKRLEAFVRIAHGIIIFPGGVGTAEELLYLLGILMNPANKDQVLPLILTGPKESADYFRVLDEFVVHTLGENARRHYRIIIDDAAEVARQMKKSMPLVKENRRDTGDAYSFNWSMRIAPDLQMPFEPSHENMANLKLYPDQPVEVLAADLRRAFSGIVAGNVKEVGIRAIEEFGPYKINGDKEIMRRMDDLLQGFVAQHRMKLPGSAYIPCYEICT
Description: (§4) For Kd measurements by DRaCALA, 2-fold serial dilutions from the highest possible concentrations of each purified protein were prepared in binding buffer B, and approximately 2 nM concentrations of α-^32P-labeled ppGpp, pppGpp, GTP, and GDP were added. The mixtures were incubated for 5 min at RT before spotting of 2 µl of the reaction mixtures onto nitrocellulose membranes. […] For competition assays, purified proteins at the specified concentrations were incubated with 2 nM [α-^32P]ppGpp or [α-^32P]pppGpp in the presence of 100 μM competitor nucleotides in binding buffer B. The reaction mixtures were incubated for 5 min at RT, 2 µl was spotted onto nitrocellulose membranes, and the values corresponding to the bound fractions were determined. EDTA was added at excess concentrations as specified for each case.

[3] = target: T1, NudG (Escherichia coli, UniProt P77788); assay: DRaCALA competition assay, lysate with overproduced NudG; type: binding, E. coli; conditions: whole-cell lysate, 2 nM hot (p)ppGpp, 100 µM cold competitor
T1 construct: expressed in transfected cells; host or cells: E. coli ASKA collection strain, IPTG-induced, whole-cell lysate
T1 sequence (P77788 whole entry): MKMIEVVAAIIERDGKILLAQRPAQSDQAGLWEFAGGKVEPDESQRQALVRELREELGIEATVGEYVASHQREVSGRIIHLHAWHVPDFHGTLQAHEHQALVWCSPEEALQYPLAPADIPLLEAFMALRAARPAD
Description: Bacterial cells were collected and frozen at −80°C.

[4] = target: MutT (Escherichia coli, UniProt P08337); assay: In vitro cleavage assay (TLC), MutT; type: biochemical, E. coli; conditions: for cleavage by MutT: purified MutT, buffer B with 10 mM MgCl2, TLC
Chain of MutT (P08337 whole entry): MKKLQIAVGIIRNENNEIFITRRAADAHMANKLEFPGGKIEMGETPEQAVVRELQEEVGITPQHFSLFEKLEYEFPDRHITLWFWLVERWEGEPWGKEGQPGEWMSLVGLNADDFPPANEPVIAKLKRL
Description: (§1) The purified His6-MutT and His6-NudG proteins were tested for their relative levels of cleavage of ppGpp compared to those seen with their native substrates. For this, a 1 μM concentration of each protein and a 10 nM concentration of [α-^32P]ppGpp were used together with 100 μM concentrations of cold competitors [ppGpp, GTP, ATP, 8-oxo-(d)GTP, 2-hydroxyl-(d)ATP] or 50 mM EDTA in buffer B. The samples were incubated at 30°C for 10 min and for 1 h before the reactions were stopped by adding 50 mM EDTA. The cleavage products were resolved by TLC as described above. The purified His6-NadR and His6-TrmE proteins were tested for their cleavage of both GTP and ppGpp. For cleavage of GTP, 10 μM concentrations of His6-MBP, His6-TrmE, and 20 μM His6-NadR proteins were used with 2 nM [α-^32P]GTP and 100 μM cold GTP in buffer B. For cleavage of ppGpp, 10 μM concentrations of His6-TrmE, His6-MBP, and His6-NadR proteins were used with 10 nM [α-^32P]ppGpp in buffer B. Of note, for His6-TrmE, another reaction was also performed in buffer B supplemented with 100 mM KCl. The reactions were performed at RT for 10 min and were stopped by adding 17% formic acid. The cleavage products were resolved by TLC as described above.
(§2) A 20 μM concentration of each of purified proteins MutT, NudG, NadR, TrmE, and MBP (as a negative control) was incubated with 100 μM ppGpp in buffer B (containing 40 mM Tris [pH 7.5], 100 mM NaCl, and 10 mM MgCl2) for 20 min at room temperature. Samples were snap-frozen on dry ice and analyzed with UPLC-MS afterward. All samples and buffers were stored at −80°C, thawed on ice, and kept at 4°C during analysis. For the analysis, a UPLC-quadrupole time of flight (UPLC-qTOF) method (Waters) was used. Analysis conditions were as follows: column, zic-HILIC (Merck Millipore) (150 by 2.1 mm, […], gradient elution, flow rate set to 0.3 ml/min); mobile phase A, 10 mM ammonium acetate (pH 5); mobile phase B, 90% acetonitrile with 10 mM ammonium acetate (pH 5). The gradient was set up as follows: min 0 to 2, 80% B; min 2 to 16, 80% B to 50% B; hold until min 20; injection volume, 4 µl. The detection conditions were as follows: photodiode array detector (PDA), […] (evaluated at 260 nm); MS, ionization; electrospray ionization (ESI+), scan, 200 to 800 m/z with lock mass correction. Analytes were identified by their accurate mass and retention time data for a known standard dissolved in used buffer (for the chemicals of the same nominal masses). These standards were either synthesized and their structures confirmed by nuclear magnetic resonance (NMR) (for ppGp, pGpp, and pGp) or purchased (ppGpp was purchased from Jena Biocsience and GTP from Sigma-Aldrich).

[5] = target: DerG1 (residues 2 to 184) (Escherichia coli, UniProt P0A6P5); assay: DRaCALA Kd determination, Der G1 domain; type: binding, E. coli; conditions: 2 nM 32P-labeled ligand, read-out: apparent Kd, DerG1
Chain of DerG1 (residues 2 to 184) (P0A6P5 2-184): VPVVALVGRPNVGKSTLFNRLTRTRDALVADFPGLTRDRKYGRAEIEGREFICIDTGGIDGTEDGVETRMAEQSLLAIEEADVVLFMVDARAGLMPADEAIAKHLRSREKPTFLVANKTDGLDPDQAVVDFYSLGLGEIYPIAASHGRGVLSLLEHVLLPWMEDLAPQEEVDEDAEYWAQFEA
Description: as §3

[6] = target: T1, NudG; assay: In vitro cleavage assay (TLC), NudG; type: biochemical, E. coli; conditions: purified NudG, buffer B with 10 mM MgCl2, TLC
Description: as §1, §2

[7] = target: HflX; parameters: method as in Table S1 (4); conditions: ref Table S1 (4); read-out: Kd, S. aureus HflX (converted); cited from earlier work
[8] = target: RF3 (PrfC) (Escherichia coli, UniProt P0A7I4); assay: DRaCALA Kd determination, purified RF3; type: binding, E. coli; conditions: 2 nM 32P-labeled ligand, read-out: apparent Kd, RF3 (PrfC)
Chain of RF3 (PrfC) (P0A7I4 whole entry): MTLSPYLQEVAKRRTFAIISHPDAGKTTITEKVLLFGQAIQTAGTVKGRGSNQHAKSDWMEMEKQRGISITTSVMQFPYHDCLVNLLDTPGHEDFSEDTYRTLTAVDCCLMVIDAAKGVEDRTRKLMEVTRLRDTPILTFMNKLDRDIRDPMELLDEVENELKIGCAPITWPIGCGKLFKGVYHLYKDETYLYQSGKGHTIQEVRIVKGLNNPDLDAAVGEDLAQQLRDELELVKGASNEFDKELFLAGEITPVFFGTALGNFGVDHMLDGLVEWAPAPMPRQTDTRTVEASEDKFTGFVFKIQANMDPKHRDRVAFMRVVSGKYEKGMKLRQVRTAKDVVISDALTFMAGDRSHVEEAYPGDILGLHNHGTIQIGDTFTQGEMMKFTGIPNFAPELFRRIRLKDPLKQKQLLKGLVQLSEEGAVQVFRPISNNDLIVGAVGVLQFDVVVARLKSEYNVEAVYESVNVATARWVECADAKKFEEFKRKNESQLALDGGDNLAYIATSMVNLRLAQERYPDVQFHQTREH
Description: (§5) For Kd measurements by DRaCALA, 2-fold serial dilutions from the highest possible concentrations of each purified protein were prepared in binding buffer B, and approximately 2 nM concentrations of α-^32P-labeled ppGpp, pppGpp, GTP, and GDP were added. The mixtures were incubated for 5 min at RT before spotting of 2 µl of the reaction mixtures onto nitrocellulose membranes. The fractions of bound ligand and the apparent Kd values were calculated as previously described ([37]).

[9] = target: HypB (Escherichia coli, UniProt P0AAN3); assay: DRaCALA Kd determination, purified HypB; type: binding, E. coli; conditions: 2 nM 32P-labeled ligand, read-out: apparent Kd, HypB
Chain of HypB (P0AAN3 whole entry): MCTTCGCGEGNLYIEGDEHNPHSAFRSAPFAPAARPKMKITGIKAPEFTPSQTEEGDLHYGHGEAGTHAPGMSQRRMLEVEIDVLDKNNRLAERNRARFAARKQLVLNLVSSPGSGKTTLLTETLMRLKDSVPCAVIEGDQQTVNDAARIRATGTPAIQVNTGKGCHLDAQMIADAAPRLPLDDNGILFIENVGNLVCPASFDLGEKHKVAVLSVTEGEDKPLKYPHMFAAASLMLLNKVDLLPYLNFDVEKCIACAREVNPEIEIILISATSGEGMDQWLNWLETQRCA
Description: as §4

[10] = target: RsgA; parameters: method as in Table S1 (4); conditions: ref Table S1 (4); read-out: Kd, S. aureus RsgA (converted); cited from earlier work
[11] = target: TrmE (Escherichia coli, UniProt P25522); assay: DRaCALA Kd determination, purified TrmE; type: binding, E. coli; conditions: in the presence of magnesium, read-out: apparent Kd, TrmE
Chain of TrmE (P25522 whole entry): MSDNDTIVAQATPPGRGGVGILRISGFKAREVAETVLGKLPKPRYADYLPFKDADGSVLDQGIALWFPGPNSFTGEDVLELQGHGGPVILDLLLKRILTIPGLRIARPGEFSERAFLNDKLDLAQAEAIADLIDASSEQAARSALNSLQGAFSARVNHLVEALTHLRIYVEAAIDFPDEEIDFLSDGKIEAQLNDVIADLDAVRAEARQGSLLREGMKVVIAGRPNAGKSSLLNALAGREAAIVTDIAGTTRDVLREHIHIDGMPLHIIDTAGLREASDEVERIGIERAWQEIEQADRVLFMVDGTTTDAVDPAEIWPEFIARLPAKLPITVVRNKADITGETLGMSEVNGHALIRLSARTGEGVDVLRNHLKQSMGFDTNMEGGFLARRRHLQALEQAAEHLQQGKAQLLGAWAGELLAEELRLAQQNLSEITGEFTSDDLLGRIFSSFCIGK
Description: as §4

[12] = target: Era (Escherichia coli, UniProt P06616); assay: DRaCALA Kd determination, purified Era; type: binding, E. coli; conditions: 2 nM 32P-labeled ligand, read-out: apparent Kd, Era (converted)
Chain of Era (Escherichia coli, UniProt P06616) (P06616 whole entry): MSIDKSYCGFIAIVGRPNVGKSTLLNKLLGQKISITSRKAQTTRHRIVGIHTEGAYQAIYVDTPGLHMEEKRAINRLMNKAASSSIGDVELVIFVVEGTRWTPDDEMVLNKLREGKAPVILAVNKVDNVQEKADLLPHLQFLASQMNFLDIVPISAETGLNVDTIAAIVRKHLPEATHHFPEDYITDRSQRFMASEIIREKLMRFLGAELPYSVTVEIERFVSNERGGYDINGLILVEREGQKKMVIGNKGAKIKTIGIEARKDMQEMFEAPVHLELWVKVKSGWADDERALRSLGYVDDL
Description: as §5

[13] = target: PPX; parameters: method as in ref 35 (Table S1 ref 20); conditions: competitive; ref 35 (Table S1 ref 20); read-out: inhibitory constant Ki, PPX; cited from earlier work
[14] = target: Gpt (Escherichia coli, UniProt P0A9M5); assay: DRaCALA Kd determination, purified Gpt; type: binding, E. coli; conditions: 2 nM 32P-labeled ligand, read-out: apparent Kd, Gpt
Chain of Gpt (P0A9M5 whole entry): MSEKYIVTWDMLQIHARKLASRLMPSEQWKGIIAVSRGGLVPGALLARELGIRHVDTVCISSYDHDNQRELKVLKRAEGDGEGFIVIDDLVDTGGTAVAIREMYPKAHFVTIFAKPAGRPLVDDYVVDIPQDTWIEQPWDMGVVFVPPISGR
Description: as §5

[15] = target: Era; parameters: method as in Table S1 (4); conditions: ref Table S1 (4); read-out: Kd, S. aureus Era (converted); cited from earlier work
[16] = in the presence of EDTA (without Mg2+), read-out: Kd, YgdH + EDTA (converted)
[17] = with 1.5 mM Mg2+, read-out: apparent Kd, YgdH + 1.5 mM Mg2+

Row | Structure (SMILES) | Kd [1] | Kd [2, 16] | Kd [2, 17] | competition for NudG-bound (p)ppGpp [3] | inhibition of [α-32P]ppGpp cleavage by MutT ([4]; 1 µM MutT, 10 nM hot ppGpp, 100 µM competitor, 30°C, up to 1 h) | cleavage by MutT [4] | Kd [5] | cleavage by NudG [6] | Kd [7] | Kd [8] | Kd [9] | Kd [10] | Kd [11] | Kd [12] | Ki [13] | Kd [14] | Kd [15]
1 | Nc1nc2c(ncn2[C@@H]2O[C@H](COP(=O)(O)OP(=O)(O)O)[C@@H](OP(=O)(O)OP(=O)(O)O)[C@H]2O)c(=O)[nH]1 [ppGpp, guanosine tetraphosphate] | 6.1 ± 0.9 µM | 4 ± 0.5 µM | 24.4 ± 4.7 µM | could outcompete the bound, radiolabeled (p)ppGpp | very limited inhibitory effects | degraded into smaller products; also recorded: cleaved most ppGpp | 5.9 ± 2.5 µM | degraded into smaller products; also recorded: relatively weak ppGpp cleavage activity | 0.87 ± 0.15 µM | 0.82 ± 0.09 µM | 12.4 ± 3 µM | 1.69 ± 0.13 µM | 1.7 ± 0.5 µM | 4.3 ± 0.6 µM | 200 µM | 5.2 ± 0.9 µM | 0.95 ± 0.06 µM
2 | Nc1nc2c(ncn2[C@@H]2O[C@H](COP(=O)(O)OP(=O)(O)OP(=O)(O)O)[C@@H](OP(=O)(O)OP(=O)(O)O)[C@H]2O)c(=O)[nH]1 [pppGpp, guanosine pentaphosphate] | 6.2 ± 0.8 µM | 1.6 µM and 1.59 µM | 37.2 ± 6.5 µM | could outcompete the bound, radiolabeled (p)ppGpp | – | degraded into smaller products | 4.7 ± 2.3 µM | degraded into smaller products | 13.6 µM | 15 ± 5 µM | 14.8 ± 5.1 µM | 10.3 µM | 2.2 ± 0.9 µM | 21.4 µM | 10 µM | 6.7 ± 0.9 µM | 3.85 µM
